Results: patent US9808003B2, “Herbicidally active 2-(substituted-phenyl)-cyclopentane-1,3-dione compounds and derivatives thereof” (Syngenta Limited, priority 2013, dated 2017)
Where two headings read alike, the source gives them in different places.

Columns and labels:
Type in all cases: in vivo
[1] = test system: Alopecurus myosuroides (ALOMY); experiment: Test 1A glasshouse assay, post-emergence herbicidal activity; conditions: Alopecurus myosuroides, 312 h, read-out: Post-emergence Herbicidal Activity (% Phytotoxicity) ALOMY
Procedure, shortened: (§1)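 Read-out is visual percent phytotoxicity 13 days post-spray, 100% meaning total plant damage and 0% none. Seedlings were treated after 8 days' glasshouse cultivation with an aqueous spray of active ingredient in acetone/water 50:50 plus 0.5% Tween 20.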

[2] = test system: Avena fatua (AVEFA); experiment: as above; conditions: Avena fatua, 312 h, read-out: Post-emergence Herbicidal Activity (% Phytotoxicity) AVEFA
Procedure, shortened: as §1

[3] = test system: Echinochloa crus-galli (ECHCG); experiment: as above; conditions: Echinochloa crus-galli, 312 h, read-out: Post-emergence Herbicidal Activity (% Phytotoxicity) ECHCG
Procedure, shortened: as §1

[4] = test system: Lolium perenne (LOLPE); experiment: as above; conditions: Lolium perenne, 312 h, read-out: Post-emergence Herbicidal Activity (% Phytotoxicity) LOLPE
Procedure, shortened: as §1

[5] = test system: Alopecurus myosuroides (ALOMY); experiment: Test 1A glasshouse assay, pre-emergence herbicidal activity; conditions: 312 h, read-out: Pre-emergence herbicidal activity (% phytotoxicity) ALOMY
Method: (§2) Seeds of a variety of test species were sown in standard soil in pots. After cultivation for one day (pre-emergence) or after 8 days cultivation (post-emergence) under controlled conditions in a glasshouse (at 24/16° C., day/night; 14 hours light; 65% humidity), the plants were sprayed with an aqueous spray solution derived from the formulation of the technical active ingredient in acetone/water (50:50) solution containing 0.5% Tween 20 (polyoxyethelyene sorbitan monolaurate, CAS RN 9005-64-5). The test plants were then grown under controlled conditions in a glasshouse (at 24/16° C., day/night; 14 hours light; 65% humidity) and watered twice daily. 13 days after application of the test herbicide, for pre- and post-emergence, the test was evaluated visually for percentage phytotoxicity to the plant (where 100%=total damage to plant; 0%=no damage to plant).
(§3) Test plants: Lolium perenne (LOLPE), Alopecurus myosuroides (ALOMY), Echinochloa crus-galli (ECHCG), and Avena fatua (AVEFA); these are all grassy monocotyledonous weeds.

[6] = test system: Avena fatua (AVEFA); experiment: as above; conditions: 312 h, read-out: Pre-emergence herbicidal activity (% phytotoxicity) AVEFA
Method: as §2, §3

[7] = test system: Echinochloa crus-galli (ECHCG); experiment: as above; conditions: 312 h, read-out: Pre-emergence herbicidal activity (% phytotoxicity) ECHCG
Method: as §2, §3

[8] = test system: Lolium perenne (LOLPE); experiment: as above; conditions: 312 h, read-out: Pre-emergence herbicidal activity (% phytotoxicity) LOLPE
Method: as §2, §3

[9] = test system: Alopecurus myosuroides (ALOMY); experiment: Test 1B glasshouse assay, post-emergence herbicidal activity against grassy weeds; conditions: 14 DAA
Procedure, shortened: (§4)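 Herbicide applied post-emergence at rates such as 60 g/ha (±50 g/ha cloquintocet-mexyl) or 90 and 120 g/ha (with safener), rates varying per compound. Plants kept at 22/16 °C, watered twice daily; percentage phytotoxicity scored visually after 14 days.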

[10] = test system: Avena fatua (AVEFA); experiment: as above; conditions: 14 DAA
Procedure, shortened: as §4

[11] = test system: Lolium multiflorum (LOLMU); experiment: as above; conditions: 14 DAA
Procedure, shortened: as §4

[12] = test system: Poa annua (POAAN); experiment: as above; conditions: 14 DAA
Procedure, shortened: as §4

[13] = test system: Setaria viridis (SETVI); experiment: as above; conditions: 14 DAA
Procedure, shortened: as §4

[14] = test system: Spring Barley “Harrington”; experiment: Test 1B glasshouse assay, post-emergence herbicidal activity against cereal crops; conditions: for Post-emergence herbicidal activity against cereal crops, percentage phytotoxicity, Spring Barley “Harrington”: 14 DAA
Procedure, shortened: (§5)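 Visual percentage damage (100% = total, 0% = none) read 14 days after application, averaged over two replicates. Plants grown 14 days at 22/16 °C day/night before post-emergence spraying of unformulated compound (IF50/acetone, 0.5% v/v Adigor). Rates usually 60–120 g/ha; cloquintocet-mexyl 50 g/ha co-applied where stated.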

[15] = test system: Spring Wheat “Teal”; experiment: as above; conditions: 14 DAA
Procedure, shortened: as §5

[16] = test system: Winter Barley “Suzuka”; experiment: as above; conditions: for Post-emergence herbicidal activity against cereal crops, percentage phytotoxicity, Winter Barley “Suzuka”: 14 DAA
Procedure, shortened: as §5

[17] = test system: Winter Wheat “Hereward”; experiment: as above; conditions: for Post-emergence herbicidal activity against cereal crops, percentage phytotoxicity, Winter Wheat “Hereward”: 14 DAA
Procedure, shortened: as §5

[18] = test system: Spring Wheat “Freya”; experiment: as above
[19] = 60 g/ha herbicide, 0 g/ha cloquintocet-mexyl
[20] = 60 g/ha herbicide, 50 g/ha cloquintocet-mexyl
[21] = application rate 250 g/ha, 13 days after application, visual (100%=total damage; 0%=no damage)
[22] = 250 g/ha, 13 days after application
[23] = 30 g/ha herbicide, 50 g/ha cloquintocet-mexyl
[24] = herbicide 30 g/ha, cloquintocet-mexyl 50 g/ha
[25] = herbicide 60 g/ha, cloquintocet-mexyl 0 g/ha
[26] = herbicide 60 g/ha, cloquintocet-mexyl 50 g/ha

## Cc1cc(-n2cc(Cl)cn2)cc(C)c1C1C(=O)CC(CCNC(=O)c2ccccn2)C1=O (racemic) [Compound A34, N-[2-[3-[4-(4-chloropyrazol-1-yl)-2,6-dimethyl-phenyl]-2,4-dioxo-cyclopentyl]ethyl]pyridine-2-carboxamide]
[1]
  pest or weed control at 250 g/ha: 90%
[2]
  pest or weed control at 250 g/ha: 100%
[3]
  pest or weed control at 250 g/ha: 100%
[4]
  pest or weed control at 250 g/ha: 100%
[5]
  inhibition at 250 g/ha: 90%
[6]
  inhibition at 250 g/ha: 100%
[7]
  inhibition at 250 g/ha: 100%
[8]
  inhibition at 250 g/ha: 100%
[9]; [19]
  Post-emergence herbicidal activity, percentage phytotoxicity, ALOMY: 65%
[9]; [20]
  Post-emergence herbicidal activity, percentage phytotoxicity, ALOMY: 73%
[10]; [19]
  Post-emergence herbicidal activity, percentage phytotoxicity, AVEFA: 100%
[10]; [20]
  Post-emergence herbicidal activity, percentage phytotoxicity, AVEFA: 100%
[11]; [19]
  Post-emergence herbicidal activity, percentage phytotoxicity, LOLMU: 83%
[11]; [20]
  Post-emergence herbicidal activity, percentage phytotoxicity, LOLMU: 90%
[12]; [19]
  Post-emergence herbicidal activity, percentage phytotoxicity, POAAN: 78%
[12]; [20]
  Post-emergence herbicidal activity, percentage phytotoxicity, POAAN: 75%
[13]; [19]
  Post-emergence herbicidal activity, percentage phytotoxicity, SETVI: 80%
[13]; [20]
  Post-emergence herbicidal activity, percentage phytotoxicity, SETVI: 85%
[14]; [19]
  Post-emergence herbicidal activity against cereal crops, percentage phytotoxicity, Spring Barley “Harrington”: 83%
[14]; [20]
  Post-emergence herbicidal activity against cereal crops, percentage phytotoxicity, Spring Barley “Harrington”: 33%
[15]; [19]
  Post-emergence herbicidal activity against cereal crops, percentage phytotoxicity, Spring Wheat “Teal”: 43%
[15]; [20]
  Post-emergence herbicidal activity against cereal crops, percentage phytotoxicity, Spring Wheat “Teal”: 10%
[16]; [19]
  Post-emergence herbicidal activity against cereal crops, percentage phytotoxicity, Winter Barley “Suzuka”: 83%
[16]; [20]
  Post-emergence herbicidal activity against cereal crops, percentage phytotoxicity, Winter Barley “Suzuka”: 38%
[17]; [19]
  Post-emergence herbicidal activity against cereal crops, percentage phytotoxicity, Winter Wheat “Hereward”: 20%
[17]; [20]
  Post-emergence herbicidal activity against cereal crops, percentage phytotoxicity, Winter Wheat “Hereward”: 5%

## Cc1cc(C)c(C2C(=O)CC(CCNC(=O)c3cc(Cl)ccn3)C2=O)c(C)c1 (racemic) [Compound A23]
[1]; [21]
  pest or weed control at 250 g/ha: 90%
[2]; [21]
  pest or weed control at 250 g/ha: 90%
[3]; [21]
  pest or weed control at 250 g/ha: 100%
[4]; [21]
  pest or weed control at 250 g/ha: 90%
[5]; [22]
  inhibition at 250 g/ha: 90%
[6]; [22]
  inhibition at 250 g/ha: 80%
[7]; [22]
  inhibition at 250 g/ha: 100%
[8]; [22]
  inhibition at 250 g/ha: 100%
[9]; [23]
  Post-emergence herbicidal activity, percentage phytotoxicity, ALOMY: 28%
[9]; [19]
  Post-emergence herbicidal activity, percentage phytotoxicity, ALOMY: 75%
[9]; [20]
  Post-emergence herbicidal activity, percentage phytotoxicity, ALOMY: 78%
[10]; [23]
  Post-emergence herbicidal activity, percentage phytotoxicity, AVEFA: 13%
[10]; [19]
  Post-emergence herbicidal activity, percentage phytotoxicity, AVEFA: 80%
[10]; [20]
  Post-emergence herbicidal activity, percentage phytotoxicity, AVEFA: 70%
[11]; [23]
  Post-emergence herbicidal activity, percentage phytotoxicity, LOLMU: 48%
[11]; [19]
  Post-emergence herbicidal activity, percentage phytotoxicity, LOLMU: 90%
[11]; [20]
  Post-emergence herbicidal activity, percentage phytotoxicity, LOLMU: 83%
[12]; [23]
  Post-emergence herbicidal activity, percentage phytotoxicity, POAAN: 0%
[12]; [19]
  Post-emergence herbicidal activity, percentage phytotoxicity, POAAN: 0%
[12]; [20]
  Post-emergence herbicidal activity, percentage phytotoxicity, POAAN: 0%
[13]; [23]
  Post-emergence herbicidal activity, percentage phytotoxicity, SETVI: 95%
[13]; [19]
  Post-emergence herbicidal activity, percentage phytotoxicity, SETVI: 99%
[13]; [20]
  Post-emergence herbicidal activity, percentage phytotoxicity, SETVI: 99%
[14]; [24]
  Percentage Phytotoxicity Spring Barley “Harrington”: 1%
[14]; [25]
  Percentage Phytotoxicity Spring Barley “Harrington”: 75%
[14]; [26]
  Percentage Phytotoxicity Spring Barley “Harrington”: 5%
[16]; [24]
  Percentage Phytotoxicity Winter Barley “Suzuka”: 0%
[16]; [25]
  Percentage Phytotoxicity Winter Barley “Suzuka”: 70%
[16]; [26]
  Percentage Phytotoxicity Winter Barley “Suzuka”: 15%
[17]; [24]
  Percentage Phytotoxicity Winter Wheat “Hereward”: 0%
[17]; [25]
  Percentage Phytotoxicity Winter Wheat “Hereward”: 68%
[17]; [26]
  Percentage Phytotoxicity Winter Wheat “Hereward”: 0%
[18]; [24]
  Percentage Phytotoxicity Spring Wheat “Freya”: 5%
[18]; [25]
  Percentage Phytotoxicity Spring Wheat “Freya”: 63%
[18]; [26]
  Percentage Phytotoxicity Spring Wheat “Freya”: 7%

## CCc1cc(-n2cc(Cl)cn2)cc(C)c1C1C(=O)CC(CCNC(=O)c2ccccn2)C1=O (stereo not drawn) [Compound A87, N-[2-[3-[4-(4-chloropyrazol-1-yl)-2-ethyl-6-methyl-phenyl]-2,4-dioxo-cyclopentyl]ethyl]pyridine-2-carboxamide]
[1]; [21]
  pest or weed control at 250 g/ha: 100%
[2]; [21]
  pest or weed control at 250 g/ha: 100%
[3]; [21]
  pest or weed control at 250 g/ha: 100%
[4]; [21]
  pest or weed control at 250 g/ha: 100%
[5]; [22]
  inhibition at 250 g/ha: 100%
[6]; [22]
  inhibition at 250 g/ha: 90%
[7]; [22]
  inhibition at 250 g/ha: 100%
[8]; [22]
  inhibition at 250 g/ha: 100%
[9]; [23]
  Post-emergence herbicidal activity, percentage phytotoxicity, ALOMY: 70%
[9]; [19]
  Post-emergence herbicidal activity, percentage phytotoxicity, ALOMY: 97%
[9]; [20]
  Post-emergence herbicidal activity, percentage phytotoxicity, ALOMY: 95%
[10]; [23]
  Post-emergence herbicidal activity, percentage phytotoxicity, AVEFA: 100%
[10]; [19]
  Post-emergence herbicidal activity, percentage phytotoxicity, AVEFA: 100%
[10]; [20]
  Post-emergence herbicidal activity, percentage phytotoxicity, AVEFA: 100%
[11]; [23]
  Post-emergence herbicidal activity, percentage phytotoxicity, LOLMU: 100%
[11]; [19]
  Post-emergence herbicidal activity, percentage phytotoxicity, LOLMU: 100%
[11]; [20]
  Post-emergence herbicidal activity, percentage phytotoxicity, LOLMU: 100%
[12]; [23]
  Post-emergence herbicidal activity, percentage phytotoxicity, POAAN: 75%
[12]; [19]
  Post-emergence herbicidal activity, percentage phytotoxicity, POAAN: 83%
[12]; [20]
  Post-emergence herbicidal activity, percentage phytotoxicity, POAAN: 83%
[13]; [23]
  Post-emergence herbicidal activity, percentage phytotoxicity, SETVI: 73%
[13]; [19]
  Post-emergence herbicidal activity, percentage phytotoxicity, SETVI: 93%
[13]; [20]
  Post-emergence herbicidal activity, percentage phytotoxicity, SETVI: 95%
[14]; [23]
  Post-emergence herbicidal activity against cereal crops, percentage phytotoxicity, Spring Barley “Harrington”: 0%
[14]; [19]
  Post-emergence herbicidal activity against cereal crops, percentage phytotoxicity, Spring Barley “Harrington”: 73%
[14]; [20]
  Post-emergence herbicidal activity against cereal crops, percentage phytotoxicity, Spring Barley “Harrington”: 60%
[15]; [23]
  Post-emergence herbicidal activity against cereal crops, percentage phytotoxicity, Spring Wheat “Teal”: 18%
[15]; [19]
  Post-emergence herbicidal activity against cereal crops, percentage phytotoxicity, Spring Wheat “Teal”: 48%
[15]; [20]
  Post-emergence herbicidal activity against cereal crops, percentage phytotoxicity, Spring Wheat “Teal”: 38%
[16]; [23]
  Post-emergence herbicidal activity against cereal crops, percentage phytotoxicity, Winter Barley “Suzuka”: 3%
[16]; [19]
  Post-emergence herbicidal activity against cereal crops, percentage phytotoxicity, Winter Barley “Suzuka”: 83%
[16]; [20]
  Post-emergence herbicidal activity against cereal crops, percentage phytotoxicity, Winter Barley “Suzuka”: 60%
[17]; [23]
  Post-emergence herbicidal activity against cereal crops, percentage phytotoxicity, Winter Wheat “Hereward”: 23%
[17]; [19]
  Post-emergence herbicidal activity against cereal crops, percentage phytotoxicity, Winter Wheat “Hereward”: 43%
[17]; [20]
  Post-emergence herbicidal activity against cereal crops, percentage phytotoxicity, Winter Wheat “Hereward”: 33%
